Results taken from patent US10016515B2, “DMA, a bis-benzimidazole, confers radioprotection to the intestine via Akt/NFκB dual pathway activation” (Jawaharlal Nehru University, priority 2016, dated 2018).
Like-named read-outs stand apart in the source and are kept apart here.

How the values were obtained:
[1] = Tissue bio-distribution and tissue pharmacokinetics of DMA; assay type: in vivo, mouse; conditions: for half-life / Tmax / concentration at 1 h / concentration at 2 h / concentration at 4 h / concentration at 6 h / concentration at 16 h / concentration at 24 h / Cmax: Balb/c, mouse; for half-life / Tmax / Cmax: 100 mg/kg oral dose
Method: Tissue samples were collected from the same mice from which blood samples were collected in both doses of DMA. Lung, liver, kidney, intestine, heart, spleen, brain were dissected and rinsed with phosphate buffer saline (PBS) and dried on blotting paper. 100 mg of tissue sample was homogenized for 20 s in chilled acetronitrile and water and further 700 μl chilled acetronitrile was added. The sample was centrifuged at 14000 rpm for 10 min and clear supernatant was collected for analysis on HPLC-MS/MS system.
A standard DMA calibration from 1-1000 ng/ml with internal standard (20 ng/ml) was quantified. Sample analysis was performed on positive ionization mode LC-MS/MS with multiple reactions monitoring (MRM, m/z Q1/Q3) of DMA (m/z 235.1/412.0, retention time (RT) 5.3 min) and internal standard (m/z 227.1/396.0, RT 6.5 min) (Agilent 6410 series). A gradient method was employed to analyze the plasma samples using mobile phase A (0.1% formic acid in water) and mobile phase B (methanol). The B % was set as 30 (0 min), 90 (10-14 min), 30 (14-24 min) with flow rate of 0.3 ml/min. An injection volume of 10 μl was used for analysis.
Peak tissue concentration (Cmax) of DMA and time to reach the Cmax (tmax) were read directly from the raw data by visual examination of mean tissue concentration-time profile. The tissue concentration-time data following oral dose were subjected to one-, two- and three-compartmental models using WinNonlin program (version 6.3; Certara Inc, Missouri, USA) to calculate the pharmacokinetic parameters. The pharmacokinetic models were compared according to maximal correlation between observed and predicted concentration, minimal sum of squared residuals, Akaike Information Criterion (AIC) and Schwarz Bayesian Criterion (SBC). However, the tissue concentration-time data following intravenous administration were subjected to non-compartmental approach.

[2] = system: NFκB Δp65− A549 and scramble A549 cells; experiment: Clonogenicity assay of NFκB p65 knockdown A549 cells; assay type: cell-based, human
Method: 0.8-1×10^6 A549 cells were seeded with media containing 8 μg/ml polybrene. Cells were infected with 0.5 ml lentivirus in fresh media containing polybrene and were incubated for next 24 h. Desired cells were selected against puromycin. NFκB p65 protein knockdown was checked by western blot after 3 days of selection media.
Exponentially growing scrambled and NFκB p65 knockdown A549 cells were treated with 50 μM DMA for 2 h and irradiated with 0, 2, 4, 6 and 8 Gy of radiation dose for clonogenic survival assay. % Radioprotection was calculated by following formula % of Protection in radiation treated cells=(SF(Δp65−)+DMA/SF(Δp65−))×100 where SF is survival fraction in respective conditions.

[3] = kidney, Oral 100 mg/kg, read-out: Tissue DMA concentration, Kidney
[4] = liver, iv, i.v. 50 mg/kg, read-out: Tissue DMA concentration, Liver
[5] = liver, Oral 100 mg/kg, read-out: Tissue DMA concentration, Liver
[6] = lung, iv, i.v. 50 mg/kg, read-out: Tissue DMA concentration, Lung
[7] = lung, Oral 100 mg/kg, read-out: Tissue DMA concentration, Lung
[8] = spleen, iv, i.v. 50 mg/kg, read-out: Tissue DMA concentration, Spleen
[9] = spleen, Oral 100 mg/kg, read-out: Tissue DMA concentration, Spleen

COc1ccc(-c2nc3cc(-c4nc5cc(N6CCN(C)CC6)ccc5[nH]4)ccc3[nH]2)cc1OC [DMA, 5-(4-methylpiperazin-1-yl)-2-[2′-(3,4-dimethoxyphenyl)-5′-benzimidazolyl]benzimidazole]
half-life ([1]; kidney, read-out: Half life, Kidney (converted)): 2.5 h | Tmax ([1]; kidney, read-out: Tmax, Kidney): 4 h | concentration at 1 h ([1]; kidney, Oral 100 mg/kg, 1 h, read-out: Tissue DMA concentration, Kidney): 342 ng/g | concentration at 2 h [1, 3]: 1020 ng/g | concentration at 4 h ([1]; kidney, Oral 100 mg/kg, 4 h, read-out: Tissue DMA concentration, Kidney): 1530 ng/g | concentration at 6 h ([1]; kidney, Oral 100 mg/kg, 6 h, read-out: Tissue DMA concentration, Kidney): 643 ng/g | concentration at 16 h [1, 3]: 193 ng/g | concentration at 1 h ([1]; liver, intravenous, 50 mg/kg i.v., read-out: Concentration achieved in liver): 41600 ng/g | concentration at 1 h ([1]; liver, iv, i.v. 50 mg/kg, 1 h, read-out: Tissue DMA concentration, Liver): 41600 ng/g | concentration at 2 h [1, 4]: 2000 ng/g | concentration at 4 h ([1]; liver, iv, i.v. 50 mg/kg, 4 h, read-out: Tissue DMA concentration, Liver): 30100 ng/g | concentration at 6 h ([1]; liver, iv, i.v. 50 mg/kg, 6 h, read-out: Tissue DMA concentration, Liver): 40100 ng/g | concentration at 16 h [1, 4]: 22200 ng/g | half-life ([1]; liver, read-out: Half life, Liver (converted)): 4 h | Tmax ([1]; liver, read-out: Tmax, Liver): 4 h | concentration at 1 h ([1]; liver, Oral 100 mg/kg, 1 h, read-out: Tissue DMA concentration, Liver): 161 ng/g | concentration at 2 h [1, 5]: 415 ng/g | concentration at 4 h ([1]; liver, Oral 100 mg/kg, 4 h, read-out: Tissue DMA concentration, Liver): 2230 ng/g | concentration at 6 h ([1]; liver, Oral 100 mg/kg, 6 h, read-out: Tissue DMA concentration, Liver): 735 ng/g | concentration at 16 h [1, 5]: 691 ng/g | concentration at 24 h [1, 5]: 192 ng/g | concentration at 1 h ([1]; lung, intravenous, 50 mg/kg i.v., read-out: Concentration achieved in lung): 109000 ng/g | concentration at 1 h ([1]; lung, iv, i.v. 50 mg/kg, 1 h, read-out: Tissue DMA concentration, Lung): 109000 ng/g | concentration at 2 h [1, 6]: 2340 ng/g | concentration at 4 h ([1]; lung, iv, i.v. 50 mg/kg, 4 h, read-out: Tissue DMA concentration, Lung): 1770 ng/g | concentration at 6 h ([1]; lung, iv, i.v. 50 mg/kg, 6 h, read-out: Tissue DMA concentration, Lung): 1340 ng/g | concentration at 16 h [1, 6]: 993 ng/g | concentration at 24 h [1, 6]: 730 ng/g | concentration at 4 h ([1]; lung, 100 mg/kg oral, at 4 h, read-out: Concentration reached in lung): 1000 ng/g | concentration at 1 h ([1]; lung, Oral 100 mg/kg, 1 h, read-out: Tissue DMA concentration, Lung): 211 ng/g | concentration at 2 h [1, 7]: 436 ng/g | concentration at 4 h ([1]; lung, Oral 100 mg/kg, 4 h, read-out: Tissue DMA concentration, Lung): 1000 ng/g | concentration at 6 h ([1]; lung, Oral 100 mg/kg, 6 h, read-out: Tissue DMA concentration, Lung): 538 ng/g | concentration at 16 h [1, 7]: 188 ng/g | Cmax ([1]; small intestine, read-out: Cmax, Small Intestine): 106000 ng/g | half-life ([1]; small intestine, read-out: Half life, Small Intestine (converted)): 1.9 h | Tmax ([1]; small intestine, read-out: Tmax, Small Intestine): 2 h | concentration at 6 h ([1]; spleen, intravenous, 50 mg/kg i.v., read-out: Concentration achieved in spleen): 12100 ng/g | concentration at 1 h ([1]; spleen, iv, i.v. 50 mg/kg, 1 h, read-out: Tissue DMA concentration, Spleen): 6970 ng/g | concentration at 2 h [1, 8]: 6450 ng/g | concentration at 4 h ([1]; spleen, iv, i.v. 50 mg/kg, 4 h, read-out: Tissue DMA concentration, Spleen): 2090 ng/g | concentration at 6 h ([1]; spleen, iv, i.v. 50 mg/kg, 6 h, read-out: Tissue DMA concentration, Spleen): 12100 ng/g | concentration at 16 h [1, 8]: 9600 ng/g | concentration at 1 h ([1]; spleen, 50 mg/kg intravenous, read-out: C1 hr, Spleen): 6970 ng/g | Cmax ([1]; spleen, read-out: Cmax, Spleen): 1310 ng/g | half-life ([1]; spleen, read-out: Half life, Spleen (converted)): 4.2 h | Tmax ([1]; spleen, read-out: Tmax, Spleen): 2 h | concentration at 1 h ([1]; spleen, Oral 100 mg/kg, 1 h, read-out: Tissue DMA concentration, Spleen): 401 ng/g | concentration at 2 h [1, 9]: 1310 ng/g | concentration at 4 h ([1]; spleen, Oral 100 mg/kg, 4 h, read-out: Tissue DMA concentration, Spleen): 681 ng/g | concentration at 6 h ([1]; spleen, Oral 100 mg/kg, 6 h, read-out: Tissue DMA concentration, Spleen): 558 ng/g | concentration at 16 h [1, 9]: 254 ng/g | Tissue DMA concentration, Intestine ([1]; i.v. 50 mg/kg, 1 h): 1260000 ng/g of tissue | Tissue accumulation ([1]; oral and i.v.): preferential accumulation in small intestine | DMF ([2]; NFκB Δp65− A549, 50 μM DMA 2 h): 1.02 | DMF ([2]; scrambled sequence transfected A549, 50 μM DMA 2 h): 1.28
